These results are taken from US10544147B2, “Purine inhibitors of human phosphatidylinositol 3-kinase delta” (MERCK SHARP & DOHME CORP., priority 2016, dated 2020).

Assay [1] has as its target PI3Kdelta (Homo sapiens (Human), UniProt O00329). As to the kind of experiment: HTRF PI3K biochemical assay, delta isoform. Conditions: 0.3 nM enzyme, 100 uM ATP, 50 uM PIP2; form screened (neutral or TFA salt). (In general: Time-resolved FRET reads energy transfer from a long-lived donor to a nearby acceptor.)
The target in assay [2] is PI3Kalpha (Homo sapiens (Human), UniProt P42336). As to the kind of experiment: HTRF PI3K biochemical assay, alpha isoform (selectivity versus delta). As to conditions: ratio PI3K-alpha IC50 value/PI3K-delta IC50 value.
Sequence of PI3Kalpha (P42336 whole entry, canonical isoform): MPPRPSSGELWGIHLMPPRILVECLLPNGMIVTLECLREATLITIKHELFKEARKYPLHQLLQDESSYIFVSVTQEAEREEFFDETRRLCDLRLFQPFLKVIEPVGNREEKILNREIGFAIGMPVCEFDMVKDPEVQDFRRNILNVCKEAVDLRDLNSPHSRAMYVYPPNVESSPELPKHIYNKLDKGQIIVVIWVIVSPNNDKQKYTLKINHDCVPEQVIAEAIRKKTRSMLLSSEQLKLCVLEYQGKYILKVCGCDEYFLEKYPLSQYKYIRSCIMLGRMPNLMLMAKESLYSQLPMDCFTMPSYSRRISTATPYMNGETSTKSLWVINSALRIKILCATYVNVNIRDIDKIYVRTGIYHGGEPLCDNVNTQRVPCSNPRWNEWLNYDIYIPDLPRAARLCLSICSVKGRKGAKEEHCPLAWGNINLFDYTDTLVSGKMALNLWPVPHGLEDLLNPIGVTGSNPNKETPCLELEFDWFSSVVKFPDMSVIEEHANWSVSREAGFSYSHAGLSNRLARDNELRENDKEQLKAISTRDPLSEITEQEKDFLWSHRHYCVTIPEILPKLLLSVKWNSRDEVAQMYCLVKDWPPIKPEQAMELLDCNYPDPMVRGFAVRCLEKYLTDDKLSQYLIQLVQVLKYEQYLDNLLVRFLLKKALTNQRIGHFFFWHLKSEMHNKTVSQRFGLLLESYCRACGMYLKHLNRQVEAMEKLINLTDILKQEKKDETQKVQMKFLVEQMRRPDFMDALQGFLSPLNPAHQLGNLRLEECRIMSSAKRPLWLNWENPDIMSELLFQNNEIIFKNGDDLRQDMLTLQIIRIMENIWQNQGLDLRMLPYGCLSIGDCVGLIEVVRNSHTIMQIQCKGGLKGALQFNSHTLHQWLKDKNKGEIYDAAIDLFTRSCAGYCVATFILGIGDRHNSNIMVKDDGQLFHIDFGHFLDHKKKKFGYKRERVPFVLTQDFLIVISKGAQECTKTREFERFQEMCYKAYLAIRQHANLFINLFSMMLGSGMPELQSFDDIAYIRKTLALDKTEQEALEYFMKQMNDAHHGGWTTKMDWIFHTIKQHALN
Sequence of PI3Kalpha (P27986 whole entry partner, canonical isoform): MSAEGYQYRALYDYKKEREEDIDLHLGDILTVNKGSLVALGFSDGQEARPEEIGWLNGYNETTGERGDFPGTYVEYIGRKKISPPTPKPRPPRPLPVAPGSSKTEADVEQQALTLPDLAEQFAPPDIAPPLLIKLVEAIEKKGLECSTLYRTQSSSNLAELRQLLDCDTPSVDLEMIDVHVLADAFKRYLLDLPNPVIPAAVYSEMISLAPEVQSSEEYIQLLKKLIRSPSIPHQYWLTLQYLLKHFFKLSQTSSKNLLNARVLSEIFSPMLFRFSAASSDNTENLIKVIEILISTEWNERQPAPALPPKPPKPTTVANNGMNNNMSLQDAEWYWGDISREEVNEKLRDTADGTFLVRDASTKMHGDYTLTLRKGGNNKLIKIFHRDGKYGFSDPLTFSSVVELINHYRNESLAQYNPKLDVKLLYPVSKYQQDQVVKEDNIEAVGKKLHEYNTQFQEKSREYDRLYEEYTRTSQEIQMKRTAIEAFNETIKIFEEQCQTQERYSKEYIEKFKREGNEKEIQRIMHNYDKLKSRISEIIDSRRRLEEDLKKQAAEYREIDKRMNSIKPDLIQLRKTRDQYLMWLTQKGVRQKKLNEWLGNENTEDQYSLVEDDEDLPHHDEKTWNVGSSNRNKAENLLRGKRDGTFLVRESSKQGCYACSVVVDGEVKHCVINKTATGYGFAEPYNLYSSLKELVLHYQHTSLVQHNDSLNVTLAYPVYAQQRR

Sequence of PI3Kdelta (O00329 whole entry, canonical isoform): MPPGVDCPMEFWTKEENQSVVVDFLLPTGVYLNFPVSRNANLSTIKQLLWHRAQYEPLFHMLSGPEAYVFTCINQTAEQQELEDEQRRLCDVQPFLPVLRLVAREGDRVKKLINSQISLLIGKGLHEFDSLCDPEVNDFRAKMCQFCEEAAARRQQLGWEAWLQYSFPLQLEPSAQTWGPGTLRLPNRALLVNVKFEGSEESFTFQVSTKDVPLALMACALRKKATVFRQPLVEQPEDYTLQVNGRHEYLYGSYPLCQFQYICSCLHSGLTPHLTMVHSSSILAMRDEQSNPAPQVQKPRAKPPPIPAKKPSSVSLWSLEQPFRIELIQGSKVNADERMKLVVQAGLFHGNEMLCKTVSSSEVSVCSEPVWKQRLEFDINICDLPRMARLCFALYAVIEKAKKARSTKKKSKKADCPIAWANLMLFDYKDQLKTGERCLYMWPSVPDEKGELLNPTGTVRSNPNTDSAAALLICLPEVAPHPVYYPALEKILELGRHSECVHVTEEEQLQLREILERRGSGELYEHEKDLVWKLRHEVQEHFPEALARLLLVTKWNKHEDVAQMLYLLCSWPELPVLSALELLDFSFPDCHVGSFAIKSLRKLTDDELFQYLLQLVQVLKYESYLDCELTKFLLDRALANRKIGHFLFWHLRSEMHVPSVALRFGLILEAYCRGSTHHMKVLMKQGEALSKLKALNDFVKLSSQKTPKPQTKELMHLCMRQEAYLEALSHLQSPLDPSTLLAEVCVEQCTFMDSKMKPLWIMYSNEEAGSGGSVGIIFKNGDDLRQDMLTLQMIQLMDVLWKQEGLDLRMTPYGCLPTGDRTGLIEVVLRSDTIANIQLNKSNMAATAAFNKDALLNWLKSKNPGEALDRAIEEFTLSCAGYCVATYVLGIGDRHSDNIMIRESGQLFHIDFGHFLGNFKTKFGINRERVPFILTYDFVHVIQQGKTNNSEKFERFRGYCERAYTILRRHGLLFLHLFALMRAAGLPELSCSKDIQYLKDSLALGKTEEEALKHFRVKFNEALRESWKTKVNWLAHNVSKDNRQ
Sequence of PI3Kdelta (P27986 whole entry partner, canonical isoform): as the sequence (P27986 whole entry partner, canonical isoform) above

For `CCn1c(-c2cnc(C)nc2)nc2c(-c3ccc4c(c3)C3(CCCN3S(C)(=O)=O)C(=O)N4)ncnc21` (single isomer, unassigned) [Compound 3-20, (R or S)-5-(9-ethyl-8-(2-methylpyrimidin-5-yl)-9H-purin-6-yl)-1′-(methylsulfonyl)spiro[indoline-3,2′-pyrrolidin]-2-one], the IC50 – broadly, the point on the concentration scale where inhibition reaches its midpoint – in assay [1] was 55 nM. The “Relative Selectivity versus PI3Kalpha” value in assay [2] was above 10.

Turning to `CCn1c(-c2cnc(C)nc2)nc2c(-c3ccc4c(c3)C3(CCCN3S(=O)(=O)C(F)(F)F)C(=O)N4)ncnc21` (single isomer, unassigned) [Compound 3-22, (R or S)-5-(9-ethyl-8-(2-methylpyrimidin-5-yl)-9H-purin-6-yl)-1′-((trifluoromethyl)sulfonyl)spiro[indoline-3,2′-pyrrolidine]-2-one], the IC50 in assay [1] was found to be 4 nM. Further, the “Relative Selectivity versus PI3Kalpha” value in assay [2] was above 10.

For the compound `CCn1c(-c2cnc(C)nc2)nc2c(-c3ccc4c(c3)C(C)(OCC3CC3)C(=O)N4)ncnc21` (single isomer, unassigned) [Compound 2-57, (R or S)-3-(cyclopropylmethoxy)-5-(9-ethyl-8-(2-methylpyrimidin-5-yl)-9H-purin-6-yl)-3-methylindolin-2-one], in assay [1], the IC50 is 264 nM. In addition, the “Relative Selectivity versus PI3Kalpha” value in assay [2] is listed as above 10.

`CCn1c(-c2cnc(C)nc2)nc2c(-c3ccc4c(c3)C(C)(N[C@H](C)C3CCC3)C(=O)N4)ncnc21` (mixture of isomers) [Compound 2-17, 3-{[(1R)-1-cyclobutylethyl]amino}-5-[9-ethyl-8-(2-methylpyrimidin-5-yl)-9H-purin-6-yl]-3(R and S)-methyl-1,3-dihydro-2H-indol-2-one]: the IC50 in assay [1] stood at 10 nM. Also, in assay [2], the “Relative Selectivity versus PI3Kalpha” value is listed as above 10.

Consider `CCn1c(-c2cnc(C)nc2)nc2c(-c3ccc4c(c3)C(C)(NCC3CC3)C(=O)N4)ncnc21` (single isomer, unassigned) [Compound 2-33, (R or S)-3-[(cyclopropylmethyl)amino]-5-[9-ethyl-8-(2-methylpyrimidin-5-yl)-9H-purin-6-yl]-3-methyl-1,3-dihydro-2H-indol-2-one], for which, in assay [1], the IC50 was found to be 2750 nM. In addition, the “Relative Selectivity versus PI3Kalpha” value in assay [2] was above 4.

With `CCn1c(-c2cnc(C)nc2)nc2c(-c3ccc4c(c3)C3(CCN(C(=O)C5CC5)C3)C(=O)N4)ncnc21` (single isomer, unassigned) [Compound 3-6, (R or S)-1′-(cyclopropanecarbonyl)-5-(9-ethyl-8-(2-methylpyrimidin-5-yl)-9H-purin-6-yl)spiro[indoline-3,3′-pyrrolidin]-2-one], in assay [1], the IC50 is 26 nM. The “Relative Selectivity versus PI3Kalpha” value in assay [2] is above 10.

As to `CCn1c(-c2cnc(C)nc2)nc2c(-c3ccc4c(c3)C(C)(N3C[C@H]5C[C@@H]3CO5)C(=O)N4)ncnc21` (mixture of isomers) [Compound 2-26, 5-[9-ethyl-8-(2-methylpyrimidin-5-yl)-9H-purin-6-yl]-3(R and S)-methyl-3-[(1R,4R)-2-oxa-5-azabicyclo[2.2.1]hept-5-yl]-1,3-dihydro-2H-indol-2-one], in assay [1], the IC50 worked out at 58 nM. Further, in assay [2], the “Relative Selectivity versus PI3Kalpha” value is above 10.

Turning to `CCn1c(-c2cnc(C)nc2)nc2c(-c3ccc4c(c3)C(C)(N3CC5(CCO5)C3)C(=O)N4)ncnc21` (single isomer, unassigned) [Compound 2-7, (R or S)-5-[9-ethyl-8-(2-methylpyrimidin-5-yl)-9H-purin-6-yl]-3-methyl-3-(1-oxa-6-azaspiro[3.3]hept-6-yl)-1,3-dihydro-2H-indol-2-one], in assay [1], the IC50 was 8 nM. The “Relative Selectivity versus PI3Kalpha” value in assay [2] was above 10.

For `CCn1c(-c2cnc(C)nc2)nc2c(-c3ccc4c(c3)C(C)(CC(C)C)NS4(=O)=O)ncnc21` (single isomer, unassigned) [Compound 4-6, (R or S)-9-ethyl-6-[3-methyl-3-(2-methylpropyl)-1,1-dioxido-2,3-dihydro-1,2-benzisothiazol-5-yl]-8-(2-methylpyrimidin-5-yl)-9H-purine], the IC50 in assay [1] was 55 nM. For the same compound, the “Relative Selectivity versus PI3Kalpha” value in assay [2] was above 10.

`CCn1c(-c2cnc(C)nc2)nc2c(-c3ccc4c(c3)C(C)(NCC(C)(C)C#N)C(=O)N4)ncnc21` (single isomer, unassigned) [Compound 2-40, (R or S)-3-((5-(9-ethyl-8-(2-methylpyrimidin-5-yl)-9H-purin-6-yl)-3-methyl-2-oxoindolin-3-yl)amino)-2,2-dimethylpropanenitrile]: the IC50 in assay [1] was 179 nM. In assay [2], the “Relative Selectivity versus PI3Kalpha” value is reported as above 10.

On to `CCn1c(-c2cnc(C)nc2)nc2c(-c3cnc4c(c3)C(C)(N3CC(C)(C#N)C3)C(=O)N4)ncnc21` (single isomer, unassigned) [Compound 2-54, (S or R)-1-(5-(9-ethyl-8-(2-methylpyrimidin-5-yl)-9H-purin-6-yl)-3-methyl-2-oxo-2,3-dihydro-1H-pyrrolo[2,3-b]pyridin-3-yl)-3-methylazetidine-3-carbonitrile], for which the IC50 in assay [1] stood at 168 nM. In assay [2], the “Relative Selectivity versus PI3Kalpha” value is above 10.

In the case of `CCn1c(-c2cnc(C)nc2)nc2c(-c3ccc4c(c3)C3(CCCN3S(C)(=O)=O)C(=O)N4)ncnc21` (single isomer, unassigned) [Compound 3-19, (R or S)-5-(9-ethyl-8-(2-methylpyrimidin-5-yl)-9H-purin-6-yl)-1′-(methylsulfonyl)spiro[indoline-3,2′-pyrrolidin]-2-one], in assay [1], the IC50 came out at 0.7 nM. Further, the “Relative Selectivity versus PI3Kalpha” value in assay [2] is above 10.

Consider `CCn1c(-c2cnc(C)nc2)nc2c(-c3ccc4c(c3)C3(CCN(C(=O)C5CC5)C3)C(=O)N4)ncnc21` (single isomer, unassigned) [Compound 3-5, (R or S)-1′-(cyclopropanecarbonyl)-5-(9-ethyl-8-(2-methylpyrimidin-5-yl)-9H-purin-6-yl)spiro[indoline-3,3′-pyrrolidin]-2-one], for which the IC50 in assay [1] is 63 nM. Further, in assay [2], the “Relative Selectivity versus PI3Kalpha” value is listed as above 10.

As for `CCn1c(-c2cnc(C)nc2)nc2c(-c3ccc4c(c3)C(C)(Cc3ccccc3)N(C)C4=O)ncnc21` (single isomer, unassigned) [Compound 4-12, (R or S)-3-benzyl-5-[9-ethyl-8-(2-methylpyrimidin-5-yl)-9H-purin-6-yl]-2,3-dimethyl-2,3-dihydro-1H-isoindol-1-one], in assay [1], the IC50 was 14 nM. In addition, the “Relative Selectivity versus PI3Kalpha” value in assay [2] was above 10.

For `CCn1c(-c2cnc(C)nc2)nc2c(-c3ccc4c(c3)C(C)(CC3CC3)C(=O)N4C)ncnc21` (single isomer, unassigned) [Compound 1-9, 3-(Cyclopropylmethyl)-5-(9-ethyl-8-(2-methylpyrimidin-5-yl)-9H-purin-6-yl)-1,3-dimethylindolin-2-one], the IC50 in assay [1] is 17 nM. Further, in assay [2], the “Relative Selectivity versus PI3Kalpha” value was above 10.

As for `CCn1c(C(F)F)nc2c(-c3ccc4c(c3)C3(CCCN3C(=O)C3CC3)C(=O)N4)ncnc21` (single isomer, unassigned) [Compound 3-15, (R or S)-1′-(cyclopropanecarbonyl)-5-(8-(difluoromethyl)-9-ethyl-9H-purin-6-yl)spiro[indoline-3,2′-pyrrolidin]-2-one], the IC50 in assay [1] amounted to 5 nM. Also, in assay [2], the “Relative Selectivity versus PI3Kalpha” value is recorded as above 10.

Take `CCn1c(-c2cnc(C)nc2)nc2c(-c3ccc4c(c3)C(C)(N3CC(C)(C#N)C3)C(=O)N4)ncnc21` (single isomer, unassigned) [Compound 2-5, (R or S)-1-{5-[9-ethyl-8-(2-methylpyrimidin-5-yl)-9H-purin-6-yl]-3-methyl-2-oxo-2,3-dihydro-1H-indol-3-yl}-3-methylazetidine-3-carbonitrile]: in assay [1], the IC50 is 73 nM. Further, the “Relative Selectivity versus PI3Kalpha” value in assay [2] is recorded as above 10.

For the compound `CCn1c(-c2cnc(C)nc2)nc2c(-c3ccc4c(c3)C(C)(N3C[C@@H](F)[C@H](F)C3)C(=O)N4)ncnc21` (single isomer, unassigned) [Compound 2-61, 3-(R or S)-((3R,4R)-3,4-difluoropyrrolidin-1-yl)-5-(9-ethyl-8-(2-methylpyrimidin-5-yl)-9H-purin-6-yl)-3-methylindolin-2-one], the IC50 in assay [1] was determined as 35 nM. Moreover, the “Relative Selectivity versus PI3Kalpha” value in assay [2] is recorded as above 10.

Take `Cc1ncc(-c2nc3c(-c4cnc5c(c4)C(C)(CC(C)C)C(=O)N5)ncnc3n2C)cn1` (single isomer, unassigned) [Compound 1-26, (R or S)-3-isobutyl-3-methyl-5-(9-methyl-8-(2-methylpyrimidin-5-yl)-9H-purin-6-yl)-1,3-dihydro-2H-pyrrolo[2,3-b]pyridin-2-one]: the IC50 in assay [1] came out at 50 nM. Moreover, the “Relative Selectivity versus PI3Kalpha” value in assay [2] is above 10.

On to `CCn1c(-c2cnc(C)nc2)nc2c(-c3ccc4c(c3)C(C)(NCC3(C#N)CCC3)C(=O)N4)ncnc21` (racemic) [Compound 2-19, (R and S)-1-[({5-[9-ethyl-8-(2-methylpyrimidin-5-yl)-9H-purin-6-yl]-3-methyl-2-oxo-2,3-dihydro-1H-indol-3-yl}amino)methyl]cyclobutane-carbonitrile], for which the IC50 in assay [1] was 22 nM. Further, the “Relative Selectivity versus PI3Kalpha” value in assay [2] is above 10.

As for `CCn1c(-c2cnc(C)nc2)nc2c(-c3ccc4c(c3)C(C)(N3C[C@@H](C)O[C@@H](C)C3)C(=O)N4)ncnc21` (single isomer, unassigned) [Compound 2-4, (R or S)-3-[(cis)-2,6-dimethylmorpholin-4-yl]-5-[9-ethyl-8-(2-methylpyrimidin-5-yl)-9H-purin-6-yl]-3-methyl-1,3-dihydro-2H-indol-2-one], the IC50 in assay [1] came to 5 nM. For the same compound, in assay [2], the “Relative Selectivity versus PI3Kalpha” value is above 10.

Regarding `CCn1c(-c2cnc(C)nc2)nc2c(-c3ccc4c(c3)C(C)(NCC3CC3)C(=O)N4)ncnc21` (single isomer, unassigned) [Compound 2-34, (R or S)-3-[(cyclopropylmethyl)amino]-5-[9-ethyl-8-(2-methylpyrimidin-5-yl)-9H-purin-6-yl]-3-methyl-1,3-dihydro-2H-indol-2-one], the IC50 in assay [1] was 29 nM. Besides, the “Relative Selectivity versus PI3Kalpha” value in assay [2] was above 10.
